Columns and labels:
[1] = In vitro inhibitory concentration against Prostaglandin G/H synthase 1 enzyme activity
[2] = target: T1, Prostaglandin G/H synthase 2 (Homo sapiens, UniProt P35354); test: In vitro inhibitory concentration against Prostaglandin G/H synthase 2 enzyme activity
T1 sequence (P35354 whole entry): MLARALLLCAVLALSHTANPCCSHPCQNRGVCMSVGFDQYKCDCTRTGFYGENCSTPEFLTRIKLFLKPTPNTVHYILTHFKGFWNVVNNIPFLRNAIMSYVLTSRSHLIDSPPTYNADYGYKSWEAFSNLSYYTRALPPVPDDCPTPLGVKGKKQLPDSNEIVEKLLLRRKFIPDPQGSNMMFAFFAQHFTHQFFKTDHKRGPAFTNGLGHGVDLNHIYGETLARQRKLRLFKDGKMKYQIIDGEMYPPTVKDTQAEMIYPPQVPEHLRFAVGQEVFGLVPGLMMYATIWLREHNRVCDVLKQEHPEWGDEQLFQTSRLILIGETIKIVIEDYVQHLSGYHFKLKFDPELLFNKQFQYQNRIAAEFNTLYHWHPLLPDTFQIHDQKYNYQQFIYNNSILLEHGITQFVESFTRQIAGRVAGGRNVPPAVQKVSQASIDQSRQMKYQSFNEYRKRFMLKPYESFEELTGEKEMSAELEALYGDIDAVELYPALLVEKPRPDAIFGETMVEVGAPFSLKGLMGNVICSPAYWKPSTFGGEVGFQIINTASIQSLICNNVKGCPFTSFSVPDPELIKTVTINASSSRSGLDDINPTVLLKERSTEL

[3] = target: T2, Prostaglandin G/H synthase 1 (Homo sapiens, UniProt P23219); test: Inhibitory concentration against human whole blood Prostaglandin G/H synthase 1 enzyme activity
T2 sequence (P23219 whole entry): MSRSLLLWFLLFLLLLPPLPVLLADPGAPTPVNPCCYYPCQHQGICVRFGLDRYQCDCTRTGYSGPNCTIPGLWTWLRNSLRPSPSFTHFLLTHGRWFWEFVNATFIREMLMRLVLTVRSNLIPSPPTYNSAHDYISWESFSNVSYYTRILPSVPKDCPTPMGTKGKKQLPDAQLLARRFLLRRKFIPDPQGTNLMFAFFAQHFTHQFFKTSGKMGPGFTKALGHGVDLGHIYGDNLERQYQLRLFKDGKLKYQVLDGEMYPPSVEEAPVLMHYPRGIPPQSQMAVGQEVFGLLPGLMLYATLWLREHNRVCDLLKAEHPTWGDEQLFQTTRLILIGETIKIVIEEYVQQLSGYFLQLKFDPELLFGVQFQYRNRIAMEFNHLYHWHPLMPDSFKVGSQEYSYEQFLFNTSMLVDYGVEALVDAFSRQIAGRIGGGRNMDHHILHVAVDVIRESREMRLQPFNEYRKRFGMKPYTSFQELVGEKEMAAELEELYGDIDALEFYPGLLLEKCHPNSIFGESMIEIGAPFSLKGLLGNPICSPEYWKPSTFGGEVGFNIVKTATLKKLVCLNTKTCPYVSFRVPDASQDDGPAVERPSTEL

[4] = target: T1, Prostaglandin G/H synthase 2; test: Inhibitory concentration against human whole blood Prostaglandin G/H synthase 2 enzyme activity was determined
[5] = Area under curve plasma concentration of compound in rat when administered perorally at 10 mg/kg dose; type: ADME, organism-based; design: dose 10 mg/kg, route oral; settings: in vivo, po
[6] = target: T2, Prostaglandin G/H synthase 1; test: Inhibitory concentration against human whole blood Prostaglandin G/H synthase 1
[7] = Plasma half life of compound was determined in rat; type: ADME
[8] = In vitro inhibitory concentration against Prostaglandin G/H synthase 1

Row | SMILES | IC50 [1] [µM] | IC50 [2] [µM] | IC50 [3] [µM] | IC50 [4] [µM] | AUC [5] [µM·h] | IC50 [6] [µM] | half-life [7] [h] | IC50 [8] [µM]
1 | Cc1[nH]c2cc(S(C)(=O)=O)ccc2c1Cc1ccc(Cl)cc1 | > 40 | 0.26 | 71.1 | 5.6 | – | – | – | –
2 | Cc1[nH]c2cc(S(C)(=O)=O)ccc2c1Oc1ccc(F)cc1F | 39.5 | 0.11 | 33 | 4.1 | – | – | – | –
3 | COC(=O)c1[nH]c2cc(S(C)(=O)=O)ccc2c1Sc1ccc(F)cc1F | – | 0.38 | 17.2 | 0.38 | – | – | – | –
4 | CS(=O)(=O)c1ccc2c(Sc3ccc(F)cc3)c(C(N)=O)[nH]c2c1 | – | 1.21 | > 40 | > 40 | – | – | – | –
5 | CS(=O)(=O)c1ccc2c(Sc3ccc(F)cc3)c(CO)[nH]c2c1 | – | 0.42 | > 100 | 5.9 | – | – | – | –
6 | CS(=O)(=O)c1ccc2c(Sc3ccccc3Cl)c(C#N)[nH]c2c1 | – | 0.13 | > 67 | 0.57 | 56 | – | – | –
7 | COc1ccc(Cc2c(C)[nH]c3cc(S(C)(=O)=O)ccc23)cc1 | > 45 | 0.27 | 7.3 | 5.1 | – | – | – | –
8 | CS(=O)(=O)Cc1[nH]c2cc(S(C)(=O)=O)ccc2c1Sc1ccccc1Cl | – | > 40 | – | – | – | – | – | –
9 | COc1ccc(C(=O)c2c(C)[nH]c3cc(S(C)(=O)=O)ccc23)cc1 | > 40 | – | 3.5 | 2.6 | – | – | – | –
10 | Cc1[nH]c2cc(S(C)(=O)=O)ccc2c1Sc1ccc(F)cc1F | – | – | 18.2 | 0.77 | 118 | – | – | –
11 | Cc1[nH]c2cc(S(C)(=O)=O)ccc2c1S(=O)(=O)c1ccc(F)cc1 | – | > 40 | – | – | – | – | – | –
12 | CC(=O)OCc1[nH]c2cc(S(C)(=O)=O)ccc2c1Sc1ccccc1Cl | – | > 40 | – | – | – | – | – | –
13 | Cc1[nH]c2cc(S(C)(=O)=O)ccc2c1Oc1ccc(Cl)cc1 | 30 | 0.3 | 12 | 3.8 | – | – | – | –
14 | Cc1[nH]c2cc(S(C)(=O)=O)ccc2c1C(=O)c1ccc(F)cc1 | 100 | 0.66 | 2.44 | 1.72 | – | – | – | –
15 | Cc1[nH]c2cc(S(C)(=O)=O)ccc2c1Oc1ccc(F)cc1 | > 40 | 0.03 | – | 2 | 35 | 37 | 6.2 | –
16 | Cc1[nH]c2cc(S(C)(=O)=O)ccc2c1Oc1ccc(Cl)cc1Cl | 25.8 | 0.11 | 33 | 4.1 | – | – | – | –

Row | SMILES | IC50 [1] [µM] | IC50 [2] [µM] | IC50 [3] [µM] | IC50 [4] [µM] | AUC [5] [µM·h] | IC50 [6] [µM] | half-life [7] [h] | IC50 [8] [µM]
17 | COc1ccc(Sc2c(C#N)[nH]c3cc(S(C)(=O)=O)ccc23)c(Cl)c1 | – | 0.33 | 8.1 | 1.09 | – | – | – | –
18 | COc1ccc(Sc2c(C)[nH]c3cc(S(C)(=O)=O)ccc23)cc1 | 9 | 0.47 | 18 | 4.8 | – | – | – | –
19 | CNC(=O)c1[nH]c2cc(S(C)(=O)=O)ccc2c1Sc1ccc(F)cc1F | – | > 40 | – | – | – | – | – | –
20 | COC(=O)c1[nH]c2cc(S(C)(=O)=O)ccc2c1Sc1ccc(F)cc1 | – | 0.8 | 9.3 | 1.1 | – | – | – | –
21 | CS(=O)(=O)c1ccc2c(Sc3ccc(F)cc3)c(C#N)[nH]c2c1 | – | – | > 125 | 2.3 | – | – | – | –
22 | CS(=O)(=O)c1ccc2c(Sc3ccc(F)cc3F)c(C#N)[nH]c2c1 | – | 0.94 | > 60 | 1.27 | 316 | – | 6.3 | –
23 | Cc1[nH]c2cc(S(C)(=O)=O)ccc2c1[S+]([O-])c1ccc(F)cc1 (centres undefined) | – | > 40 | – | – | – | – | – | –
24 | CS(=O)(=O)c1ccc2c(Sc3ccc(F)cc3F)c(C(N)=O)[nH]c2c1 | – | 2.24 | > 40 | > 40 | – | – | – | –
25 | COc1ccc(Oc2c(C)[nH]c3cccc(S(C)(=O)=O)c23)cc1 | > 30 | 0.2 | 6 | 1.6 | – | – | – | –
26 | Cc1[nH]c2cc(S(C)(=O)=O)ccc2c1Cc1ccc(F)cc1F | > 40 | 0.26 | 98 | 8.4 | 72 | – | 4.1 | –
27 | Cc1[nH]c2cc(S(C)(=O)=O)ccc2c1Cc1ccc(F)cc1 | > 40 | 0.08 | 63.9 | 11.3 | – | – | – | –
28 | COc1ccc(Oc2c(C)[nH]c3cc(S(C)(=O)=O)ccc23)cc1 | > 30 | 0.2 | 6 | 1.6 | – | – | – | –
29 | Cc1[nH]c2cc(S(C)(=O)=O)ccc2c1Cc1ccccc1Cl | – | 0.07 | 118 | 5.5 | – | – | – | > 40
30 | Cc1[nH]c2cc(S(C)(=O)=O)ccc2c1Sc1ccc(F)cc1 | > 40 | 0.02 | 55.7 | 2.2 | – | – | – | –
31 | Cc1[nH]c2cc(S(C)(=O)=O)ccc2c1Sc1ccccn1 | – | 1.78 | 30 | 5.2 | – | – | – | –
32 | CS(=O)(=O)c1ccc2c(Sc3ccc(F)cc3)c(C(=O)O)[nH]c2c1 | – | > 40 | – | – | – | – | – | –

From ChEMBL document CHEMBL1137849, “Rational design of 6-methylsulfonylindoles as selective cyclooxygenase-2 inhibitors” (Bioorg Med Chem Lett, 2004)
